Where “and” joins values, the source holds several entries; their conditions need not be identical. Identical values can stand only once.
Legend:
rabbit eyes = assay: Ophthalmic observations (slit lamp, McDonald Shadduck scores) in New Zealand White rabbits; type: in vivo; set-up: key to Ophthalmic Observation (Slit-Lamp): AN = Appeared normal; key to Cornea Score: CORNEA 1 = Some loss of transparency. Only the epithelium and/or the anterior half of the stoma are involved. The underlying structures are clearly visible although some cloudiness may be readily apparent
Experimental: Prior to placement on study, each animal underwent a pre-treatment ophthalmic examination (slit lamp and indirect ophthalmoscopy). Observations were scored according to the McDonald Shadduck system and recorded using a standardized data collection sheet.
On Days 1-31, animals received daily topical doses of the appropriate test article into the right eye. Animals were dosed four times per day, with doses administered 2 hours apart. Doses were administered using a calibrated 50-μL pipette. The eyelids were held close for 10 seconds immediately following dosing. The time of each dose administration was recorded.
Ophthalmic examinations (slit lamp) were performed prior to the first dosing on Days 5, 12, 22, 26, and 33. Ocular findings were scored according to the McDonald Shadduck system and recorded using a standardized data collection sheet.

[1] = test system: iris and conjunctival vessels, anterior chamber; assay: Clinical evaluation by slit lamp (clinical score), rabbit paracentesis model; type: in vivo, Rabbit (New Zealand); set-up: key to Clinical Score −180 min / Clinical Score −5 min / Clinical Score +115 min: 0=normal; 1=discrete dilatation of iris and conjunctival vessels; 2=moderate dilatation of iris and conjunctival vessels; 3=intense iridal hyperemia with flare in the anterior chamber; 4=intense iridal hyperemia with flare in the anterior chamber and presence of fibrinous exudates; conditions: for Clinical Score −5 min: 5 min before the first paracentesis; for Clinical Score −5 min / Clinical Score +115 min / Clinical Score −180 min: raw data per eye; for Clinical Score +115 min: 5 min before the second paracentesis; for Clinical Score −180 min: basal
[2] = test system: MPO activity in iris-ciliary body; assay: Myeloperoxidase (MPO) activity in iris-ciliary body, rabbit paracentesis model; type: in vivo, Rabbit (New Zealand); conditions: for MPO activity in iris-ciliary body: individual samples collected after the second paracentesis, listed as BOL; for MPO activity in iris-ciliary body, Mean: after the second paracentesis, group mean
Experimental: Each rabbit was placed in a restraint device and tagged with the alphanumeric code. The formulations were instilled (50 μl) into the conjunctival sac of both eyes 180, 120, 90 and 30 min before the first paracentesis; then 15, 30, 90 min after the first paracentesis. To perform the first paracentesis the animals were anaesthetized by intravenous injection of 5 mg/kg Zoletil® (Virbac; 2.5 mg/kg tiletamine HCl and 2.5 mg/kg zolazepam HCl) and one drop of local anesthetic (Novesina®, Novartis) was administered to the eye. Anterior chamber paracentesis was performed with a 26 G needle attached to a tuberculin syringe; the needle was introduced into the anterior chamber through the cornea, taking care not to damage the tissues. Two hours after the first paracentesis, the animals were sacrificed with 0.4 ml Tanax® (Intervet International B.V.) and the second paracentesis was performed. About 100 μl of aqueous humor were removed at the second paracentesis. Aqueous humor was immediately split in four aliquots and stored at −80° C. until analysis. Then both eyes were enucleated and the iris-ciliary body was carefully excised, placed in polypropylene tubes, and stored at −80° C. until analysis.
The activity of MPO was measured as previously described by Williams et al.[5] The iris-ciliary bodies were carefully dried, weighed and immersed in 1 ml of hexa-decyl-trimethyl-ammonium bromide solution. Then, the samples were sonicated for 10 sec on ice by a ultrasound homogenizer (HD 2070, Bandelin electronic), freeze-thawed three times, sonicated for 10 sec and centrifuged at 14,000 g for 10 min to remove cellular debris. An aliquot of the supernatant (40-200 μl) was diluted to 3 ml with the o-dianisidine 2HCl/H2O2 solution. The change in absorbance at 460 nm was continuously monitored for 5 min by a spectrophotometer (UV/Vis Spectrometer Lambda EZ 201; Perkin Elmer). The slope of the line (Δ/min) was determined for each sample and used to calculate the number of units of MPO in the tissue as follows:
Values were expressed as units of MPO/g of tissue.
Pupillary diameter, PGE2, protein, PMN, and MPO were expressed as mean±SEM. Statistical analysis was performed using one way ANOVA followed by a Newman-Keuls post hoc test. Clinical score was expressed as % of eyes and the statistical analysis was performed using Kruskal-Wallis followed by a Dunn post hoc test. P<0.05 was considered statistically significant in both cases. Prism 4 software (GraphPad Software, Inc.) was used for the analysis and graphs.

[3] = Group B, 10 mg/g, treated right eye, individual animals
[4] = Group C, 5 mg/g, treated right eye, individual animals
[5] = 0.1% formulation, +115 min, N=8 eyes
[6] = 0.5% formulation, +115 min, N=8 eyes

Cc1ccc2c(NC[C@](O)(CC(C)(C)c3cc(F)cc4c3OCC4)C(F)(F)F)cccc2n1 [BOL-303242-X, mapracorat]
Slit-lamp ophthalmic finding in dosed right eye (rabbit eyes; 1 mg/g suspension, one eye (Group D, No. 3043)): subconjunctival hemorrhage
Slit-lamp ophthalmic finding in dosed right eye (rabbit eyes; 10 mg/g suspension, one eye (Group B, No. 3083)): pinpoint corneal scar
Surface area of cornea involvement Score (rabbit eyes; Group B, 10 mg/g, treated right eye, animal 3083, Day 5): 1 (SURFACE AREA OF CORNEA INVOLVEMENT 1 = 1-25% area of stromal cloudiness.)
Cornea Score (rabbit eyes; Group B, 10 mg/g, treated right eye, animal 3083, Day 5, pinpoint corneal scar): 1^(2)
Conjunctival congestion Score (rabbit eyes; [3]): 1
Ophthalmic Observation (Slit-Lamp) (rabbit eyes; [3]): AN
Conjunctival congestion Score (rabbit eyes; [4]): 1
Ophthalmic Observation (Slit-Lamp) (rabbit eyes; [4]): AN
Conjunctival congestion Score (rabbit eyes; Group D, 1 mg/g, treated right eye, individual animal, Day 22): 1
Ophthalmic Observation (Slit-Lamp) (rabbit eyes; Group D, 1 mg/g, treated right eye, individual animals): AN
Ophthalmic observation associated with unilateral topical instillation (rabbit eyes; four times daily up to 31 days, BOL-303242-X 0.05, 0.25, or 0.5 mg/dose, dexamethasone 0.05 mg/dose): sporadic mild conjunctival congestion
Clinical Score −5 min ([1]; 0.1% formulation): 0
Clinical Score +115 min ([1]; 0.1% formulation, listed as BOL): 2 and 3
Percentage of eyes with clinical score 2 [1, 5]: 75%
Percentage of eyes with clinical score 3 [1, 5]: 25%
Clinical Score −180 min ([1]; 0.1% formulation): 0
Percentage of eyes with clinical score 0 ([1]; 0.1% formulation, −5 min, N=8 eyes): 100%
Percentage of eyes with clinical score 0 ([1]; 0.1% formulation, −180 min (basal), N=8 eyes): 100%
Clinical Score −5 min ([1]; 0.5% formulation): 0
Clinical Score +115 min ([1]; 0.5% formulation, listed as BOL): 2 and 1
Percentage of eyes with clinical score 1 [1, 6]: 37.5%
Percentage of eyes with clinical score 2 [1, 6]: 62.5%
Clinical Score −180 min ([1]; 0.5% formulation): 0
Percentage of eyes with clinical score 0 ([1]; 0.5% formulation, −5 min, N=8 eyes): 100%
Percentage of eyes with clinical score 0 ([1]; 0.5% formulation, −180 min (basal), N=8 eyes): 100%
Clinical Score −5 min ([1]; 1% formulation): 0
Clinical Score +115 min ([1]; 1% formulation): 2
Percentage of eyes with clinical score 2 ([1]; 1% formulation, +115 min, N=8 eyes): 100%
Clinical Score −180 min ([1]; 1% formulation): 0
Percentage of eyes with clinical score 0 ([1]; 1% formulation, −5 min, N=8 eyes): 100%
Percentage of eyes with clinical score 0 ([1]; 1% formulation, −180 min (basal), N=8 eyes): 100%
MPO activity in iris-ciliary body ([2]; 0.1% BOL): 1.04 Unit/g and 1.14 Unit/g and 1.06 Unit/g and 1.22 Unit/g and 1.05 Unit/g
MPO activity in iris-ciliary body, Mean ([2]; 0.1% formulation): 0.971 MPO Unit/g
MPO activity in iris-ciliary body ([2]; 0.5% BOL): 1.03 Unit/g
MPO activity in iris-ciliary body, Mean ([2]; 0.5% formulation): 0.775 MPO Unit/g
MPO activity in iris-ciliary body ([2]; 1% BOL): 1.02 Unit/g
MPO activity in iris-ciliary body, Mean ([2]; 1% formulation): 0.542 MPO Unit/g

From patent US20120316199A1, “COMPOSITIONS AND METHODS FOR TREATING, CONTROLLING, REDUCING, OR AMELIORATING INFLAMMATORY PAIN” (priority 2011, published 2012)
